Measured values from patent US20040115710A1, “Method for assaying compounds that decrease the activity of poly (ADP-ribose)-Polymerase (PARP)” (Aventis Pharmaceuticals Inc., priority 2002, published 2004).
pIC50: −log10 of the molar value.

Assays:
[1] = target: T1, Poly(ADP-Ribose)-Polymerase enzyme (PARP) (Homo sapiens, UniProt P09874); test: Fluorescence polarization PARP inhibition assay (Texas Red-labeled NAD+ tracer, histone, DNA); format: biochemical; details: known inhibitor of PARP used as control compound; inhibition curve in FIG. 3
T1 construct: IC50
Source text: (§1) The transfer of Texas Red-ADP ribose to protein substrates (histone and PARP itself) can be monitored through the rotational speed of the fluorescence tracer by the fluorescence polarization method. The assay measures the ability of the test compounds to inhibit the enzyme to transfer fluorescence labeled ADP to protein substrates.
(§2) A PARP baculovirus which encodes the amino acid sequence of FIG. 6 (SEQ ID NO: 1), was used to infect sf(9) cells. After PARP was expressed, it was partially purified by 40-70% ammonia sulfate cuts, and then re-suspended in TRIS buffer containing 25% (v/v) glycerol. […]
(§3) After incubation, this mixture and the control mixture were illuminated with plane polarized light having a wavelength of 590 nm, and the fluorescence polarization of the mixture and the control mixture were measured using a fluorescence filter set with an excitation wavelength of 590 nm, and an emission wavelength of 620 nm. The measurements were made with a fluorescence polarization plate reader in fluorescence polarization (FP) mode. These two measurements were then compared to determine whether the fluorescence polarization measurement of the mixture containing the compound or agent is less than that of the control. […]

[2] = target: Poly(ADP-Ribose)-Polymerase enzyme (PARP) (Homo sapiens, UniProt P09874, E70Q); test: as above; format: biochemical; details: standard (control) inhibitor of PARP, value given in materials table
Source text: as §1, §2, §3

T1 sequence (P09874 whole entry): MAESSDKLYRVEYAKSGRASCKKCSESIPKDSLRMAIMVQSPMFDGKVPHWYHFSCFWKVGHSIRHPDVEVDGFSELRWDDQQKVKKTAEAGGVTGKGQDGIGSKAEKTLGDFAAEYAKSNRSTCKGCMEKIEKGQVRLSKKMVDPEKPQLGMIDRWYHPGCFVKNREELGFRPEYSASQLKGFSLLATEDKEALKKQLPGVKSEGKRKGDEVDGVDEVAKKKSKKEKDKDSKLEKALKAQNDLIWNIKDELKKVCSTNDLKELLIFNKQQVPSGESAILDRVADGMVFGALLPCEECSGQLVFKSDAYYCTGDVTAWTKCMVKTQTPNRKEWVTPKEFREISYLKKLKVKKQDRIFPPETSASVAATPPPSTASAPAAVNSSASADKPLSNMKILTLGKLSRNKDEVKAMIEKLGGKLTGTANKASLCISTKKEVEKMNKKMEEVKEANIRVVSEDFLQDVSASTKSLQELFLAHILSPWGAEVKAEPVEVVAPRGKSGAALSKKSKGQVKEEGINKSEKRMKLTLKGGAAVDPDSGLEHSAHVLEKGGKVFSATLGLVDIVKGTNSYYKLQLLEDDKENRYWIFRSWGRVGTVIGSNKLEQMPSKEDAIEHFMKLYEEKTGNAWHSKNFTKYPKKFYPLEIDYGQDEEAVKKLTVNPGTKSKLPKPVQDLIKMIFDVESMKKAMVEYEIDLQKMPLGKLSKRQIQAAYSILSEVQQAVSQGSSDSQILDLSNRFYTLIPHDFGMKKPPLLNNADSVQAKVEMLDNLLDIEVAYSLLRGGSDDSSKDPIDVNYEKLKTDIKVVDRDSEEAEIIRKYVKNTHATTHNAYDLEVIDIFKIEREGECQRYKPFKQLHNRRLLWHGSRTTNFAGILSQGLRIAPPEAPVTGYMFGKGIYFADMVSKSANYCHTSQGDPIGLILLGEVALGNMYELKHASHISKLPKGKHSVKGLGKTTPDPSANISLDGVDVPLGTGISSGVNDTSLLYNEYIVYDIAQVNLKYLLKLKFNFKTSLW
Chain of Poly(ADP-Ribose)-Polymerase enzyme (PARP) (Homo sapiens, UniProt P09874, E70Q) (P09874 whole entry E70Q): as the sequence (P09874 whole entry) above, with E70Q counted along it

Row | pIC50 [1] | pIC50 [2] | Compound
1 | 6.42 |  | Oc1cccc2c(O)nccc12 [1,5-isoquinoline-diol]
2 |  | 6.70 | O=c1[nH]c2ccccc2c2ccccc12 [6(5H)-phenanthridinone]
